Reference: patent US6906205B2, “Spiro and dispiro 1,2,4-trioxolane antimalarials” (Medicines for Malaria Venture MMV, priority 2002, dated 2005)
Converted amounts (≈) assume the structure as drawn.

Assays:
[1] = test system: P. falciparum NF54 strain (sensitive to standard antimalarials); test: semiautomated microdilution assay, [3H]-hypoxanthine incorporation, NF54 strain; assay type: cell-based, Plasmodium falciparum; conditions: NF54 strain, 72 h incubation
Experimental: (§1) Various OZ compounds were tested by the semiautomated microdilution assay against intraerythrocytic forms of Plasmodium falciparum derived from asynchronous stock cultures.
(§2) Fifty percent inhibitory concentration (IC50) were estimated by Logit regression analysis.

[2] = test system: ANKA strain of P. berghei; test: single dose STI in vivo screen in infected mice; design: species or system Plasmodium berghei; conditions: for Activity (%) 3 mg/kg SSV po / Activity (%) 10 mg/kg SSV po: percent reduction in parasitemia day 3 post-infection; for Activity (%) 3 mg/kg SSV po / Survival (days) 3 mg/kg SSV po: single 3 mg/kg po in SSV; for Survival (days) 10 mg/kg SSV po / Activity (%) 10 mg/kg SSV po: single 10 mg/kg po in SSV
Experimental: In the single dose STI in vivo screen, Moro SPF or NMRI mice infected with the ANKA strain of P. berghei (groups of 3-5 mice) were treated on day one post-infection with trioxolanes dissolved or suspended in 3% ethanol and 7% Tween 80. […] SSV consists of 0.5% w/v CMC, 0.5% v/v benzyl alcohol, 0.4% v/v Tween 80, and 0.9% w/v sodium chloride in water. Antimalarial activity was measured by percent reduction in parasitemia on day three post-infection and survival times compared to an untreated control group. Survival to day 30 post-infection is considered to be a cure. […] Other factors influencing antimalarial activity include the stability of carbon radicals formed by β-scission subsequent to the initial electron transfer to the peroxide bond and the influence of steric effects remote from the peroxide bond on the interactions between carbon radicals and potential drug targets.

[3] = test system: P. falciparum K1 strain (Thailand resistant to chloroquine); test: semiautomated microdilution assay, [3H]-hypoxanthine incorporation, K1 strain; assay type: cell-based, Plasmodium falciparum; conditions: K1 strain, 72 h incubation
Experimental: as §1, §2

| SMILES | IC50 (ng/ml) NF54 [1] [ng/mL] | Activity (%) 3 mg/kg SSV po [2] [%] | IC50 (ng/ml) K1 [3] [ng/mL] | Survival (days) 10 mg/kg SSV po [2] | Activity (%) 10 mg/kg SSV po [2] [%] | Survival (days) 3 mg/kg SSV po [2] |
| --- | --- | --- | --- | --- | --- | --- |
| CCOC(=O)NC[C@H]1CC[C@]2(CC1)OO[C@]1(O2)C2CC3CC(C2)CC1C3 [OZ289] | 0.56 (≈ 1.53 nM) | 92 |  |  |  |  |
| CCOC(=O)CNC[C@H]1CC[C@]2(CC1)OO[C@]1(O2)C2CC3CC(C2)CC1C3 [OZ290] |  | 95 | 0.42 (≈ 1.11 nM) | 9.0 days |  |  |
| O=c1ccn(C[C@H]2CC[C@]3(CC2)OO[C@]2(O3)C3CC4CC(C3)CC2C4)cc1 [OZ302] | 2.9 (≈ 7.81 nM) | 88 |  |  | 99.60 |  |
| NCCNC(=O)C[C@H]1CC[C@]2(CC1)OO[C@]1(O2)C2CC3CC(C2)CC1C3 [OZ305] |  | 96 | 1.8 (≈ 4.94 nM) | 9.2 days | 99.93 |  |
| NC(=O)c1cn(C[C@H]2CC[C@]3(CC2)OO[C@]2(O3)C3CC4CC(C3)CC2C4)cn1 [OZ320] |  | 92 | 0.68 (≈ 1.75 nM) | 10.4 days | 99.76 | 11.8 days |
| O=CNCC(=O)NC[C@H]1CC[C@]2(CC1)OO[C@]1(O2)C2CC3CC(C2)CC1C3 [OZ322] |  | 61 | 0.90 (≈ 2.38 nM) | 10.0 days | 98 |  |
| c1cnc(OC[C@H]2CC[C@]3(CC2)OO[C@]2(O3)C3CC4CC(C3)CC2C4)nc1 [OZ325] |  | 30 | 0.62 (≈ 1.66 nM) | 8.8 days | 99.43 |  |
| c1cnc(NC[C@H]2CC[C@]3(CC2)OO[C@]2(O3)C3CC4CC(C3)CC2C4)nc1 [OZ326] |  | 7 | 0.65 (≈ 1.75 nM) | 7.4 days | 80 |  |
| NC(=O)[C@@H]1CCCN1C[C@H]1CC[C@]2(CC1)OO[C@]1(O2)C2CC3CC(C2)CC1C3 [OZ327] |  | 72 | 0.85 (≈ 2.18 nM) | 9.8 days | 97 |  |
| Nc1nccnc1C(=O)NC[C@H]1CC[C@]2(CC1)OO[C@]1(O2)C2CC3CC(C2)CC1C3 [OZ330] |  | 82 | 0.55 (≈ 1.33 nM) |  | 99.96 |  |
| C[C@H](N)C(=O)NC[C@H]1CC[C@]2(CC1)OO[C@]1(O2)C2CC3CC(C2)CC1C3 [OZ335] | 0.28 (≈ 0.768 nM) | 97 |  | 9.2 days | 99.95 |  |
| CS(=O)(=O)N1CCN(C(=O)C[C@H]2CC[C@]3(CC2)OO[C@]2(O3)C3CC4CC(C3)CC2C4)CC1 [OZ344] |  | 0 |  | 7.8 days | 17 | 7.4 days |
| CS(=O)(=O)C1CCN(C(=O)C[C@H]2CC[C@]3(CC2)OO[C@]2(O3)C3CC4CC(C3)CC2C4)CC1 [OZ345] |  | 0 |  | 9.2 days | 75 | 6.6 days |
| CS(=O)(=O)CC(=O)NC[C@H]1CC[C@]2(CC1)OO[C@]1(O2)C2CC3CC(C2)CC1C3 [OZ350] |  | 69 |  | 10.4 days | 99.17 | 9.6 days |
| c1c[nH]c(C[C@H]2CC[C@]3(CC2)OO[C@]2(O3)C3CC4CC(C3)CC2C4)n1 [OZ355] |  | 0 |  | 7.0 days | 71 | 6.2 days |
| O=C(NC[C@H]1CC[C@]2(CC1)OO[C@]1(O2)C2CC3CC(C2)CC1C3)c1cnccn1 [OZ356] |  | 87 |  | 8.6 days | 99.64 | 8.0 days |
| N[C@H]1CC[C@]2(CC1)OO[C@]1(O2)C2CC3CC(C2)CC1C3 [OZ362] |  | 58 |  | 9.8 days | 98 | 7.0 days |
| O=C([C@H]1CC[C@@]2(CC1)OO[C@@]1(O2)C2CC3CC(C2)CC1C3)N1CCNCC1 [OZ365] |  | 92 | 0.79 (≈ 2.1 nM) | 8.0/8.0 days | 99.57 | 8.0/8.0 days |
